This experiment addresses DCAF1 (DDB1-Cul4 associated factor 1), WDR domain (Homo sapiens, UniProt Q9Y4B6). Put plainly: […] Å cocrystal structure. The class given is binding.

One may read the Kd as the equilibrium constant for the complex coming apart. A lower Kd goes with tighter binding.

DCAF1 (DDB1-Cul4 associated factor 1), WDR domain, sequence (Q9Y4B6 1038-1400): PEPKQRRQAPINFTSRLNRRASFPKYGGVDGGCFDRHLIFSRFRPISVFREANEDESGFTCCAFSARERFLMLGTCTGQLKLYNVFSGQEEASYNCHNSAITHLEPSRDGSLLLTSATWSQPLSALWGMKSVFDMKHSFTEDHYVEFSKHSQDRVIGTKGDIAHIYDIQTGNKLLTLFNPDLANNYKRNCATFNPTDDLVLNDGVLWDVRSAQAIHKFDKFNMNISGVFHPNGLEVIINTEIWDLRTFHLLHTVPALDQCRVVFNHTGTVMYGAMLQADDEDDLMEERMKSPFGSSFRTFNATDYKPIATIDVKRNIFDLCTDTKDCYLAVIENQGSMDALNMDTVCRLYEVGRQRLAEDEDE

In turn, `Fc1cccc(N2CCCC(Nc3cc(N4CCOCC4)ncn3)C2)c1` (stereo not shown) [CYCA-117-70] gave a Kd of about 70 µM.
